From ChEMBL document CHEMBL5247641, “Discovery of Potent DYRK2 Inhibitors with High Selectivity, Great Solubility, and Excellent Safety Properties for the Treatment of Prostate Cancer” (J Med Chem, 2023)
Calls of active or inactive are those of the source. The rule behind the calls is not given here.

What was measured:
DU-145 [1] = assay: Induction of cell cycle arrest in human DU-145 cells assessed as accumulation of cells at G1 phase at 1 uM incubated for 24 hrs by propidium iodide based flow cytometric analysis (Rvb= 53.46%); type: functional
CWR22R [2] = assay: Induction of apoptosis in human 22Rv1 cells assessed as apoptotis rate at 4 uM incubated for 24 hrs by Annexin V-FITC and PI staining based flow cytometry (Rvb= 3.08%); type: functional
DU-145 [3] = assay: Antitumor activity against human DU-145 xenografted in BALB/c nude mouse as upregulation of E-cadherin level in tumor at 100 to 200 mg/kg,po administrated once daily for 21 days by Western blot analysis; type: functional, organism-based; conditions: dose 100-200 mg/kg, time 21.0 day
CWR22R [4] = assay: Induction of cell cycle arrest in human 22Rv1 cells assessed as accumulation of cells at G2 phase at 2 uM incubated for 24 hrs by propidium iodide based flow cytometric analysis (Rvb=24.21 %); type: functional
DU-145 [5] = assay: Antiproliferative activity against human DU-145 cells assessed as increase in p27 expression level at 2 to 8 uM incubated for 24 hrs by Western blot analysis; type: functional, cell-based; conditions: dose 2-8 µM
CWR22R [6] = assay: Antimigratory activity against human 22Rv1 cells assessed as upregulation of E-cadherin expression level at 2 to 8 uM incubated for 24 hrs by Western blot analysis; type: functional, cell-based; conditions: dose 2-8 µM
DU-145 [7] = assay: Induction of cell cycle arrest in human DU-145 cells assessed as accumulation of cells at G2 phase at 1 uM incubated for 24 hrs by propidium iodide based flow cytometric analysis (Rvb= 17.52%); type: functional
DU-145 [8] = assay: Induction of apoptosis in human DU-145 cells assessed as increase in p53 level at 2 to 8 uM incubated for 24 hrs by Western blot analysis; type: functional, cell-based; conditions: dose 2-8 µM
DU-145 [9] = assay: Antimigratory activity against human DU-145 cells assessed as upregulation of E-cadherin expression level at 2 to 8 uM incubated for 24 hrs by Western blot analysis; type: functional, cell-based; conditions: dose 2-8 µM
DU-145 [10] = assay: Induction of cell cycle arrest in human DU-145 cells assessed as accumulation of cells at G2 phase at 4 uM incubated for 24 hrs by propidium iodide based flow cytometric analysis (Rvb= 17.52%); type: functional
[11] = Acute toxicity in ICR mouse assessed as appearance of lesions in spleen at 5000 to 10000 mg/kg,po and measured after 14 days by H and E staining based microscopic analysis; type: organism-based; conditions: in vivo, 336 h, dose 5000-10000 mg/kg, time 14 day
[12] = Acute toxicity in ICR mouse assessed as change in heart weight at 1000 to 10000 mg/kg,po and measured after 14 days; type: organism-based; conditions: in vivo, 336 h, dose 1000-10000 mg/kg, time 14 day
DU-145 [13] = assay: Antitumor activity against human DU-145 xenografted in BALB/c nude mouse as upregulation of p53 level in tumor at 100 to 200 mg/kg,po administrated once daily for 21 days by Western blot analysis; type: functional, organism-based; conditions: dose 100-200 mg/kg, time 21.0 day
[14] = Acute toxicity in ICR mouse assessed as appearance of lesions in lung at 5000 to 10000 mg/kg,po and measured after 14 days by H and E staining based microscopic analysis; type: organism-based; conditions: in vivo, 336 h, dose 5000-10000 mg/kg, time 14 day
DU-145 [15] = assay: Antitumor activity against human DU-145 xenografted in BALB/c nude mouse as inhibition of tumor cell proliferation at 100 to 200 mg/kg,po administrated once daily for 21 days by Ki67 staining based microscopic analysis; type: functional, organism-based; conditions: dose 100-200 mg/kg, time 21.0 day
DU-145 [16] = assay: Induction of cell cycle arrest in human DU-145 cells assessed as accumulation of cells at S phase at 4 uM incubated for 24 hrs by propidium iodide based flow cytometric analysis (Rvb= 29.02%); type: functional
[17] = biological target: T1, Dual specificity tyrosine-phosphorylation-regulated kinase 2 (Homo sapiens) (UniProt Q92630); assay: Inhibition of DYRK2 in human DU-145 cells assessed as reduction in 4E-BP1 phosphorylation at 2 to 8 uM incubated for 24 hrs by Western blot analysis; type: cell-based; conditions: dose 2-8 µM
T1 sequence (whole entry): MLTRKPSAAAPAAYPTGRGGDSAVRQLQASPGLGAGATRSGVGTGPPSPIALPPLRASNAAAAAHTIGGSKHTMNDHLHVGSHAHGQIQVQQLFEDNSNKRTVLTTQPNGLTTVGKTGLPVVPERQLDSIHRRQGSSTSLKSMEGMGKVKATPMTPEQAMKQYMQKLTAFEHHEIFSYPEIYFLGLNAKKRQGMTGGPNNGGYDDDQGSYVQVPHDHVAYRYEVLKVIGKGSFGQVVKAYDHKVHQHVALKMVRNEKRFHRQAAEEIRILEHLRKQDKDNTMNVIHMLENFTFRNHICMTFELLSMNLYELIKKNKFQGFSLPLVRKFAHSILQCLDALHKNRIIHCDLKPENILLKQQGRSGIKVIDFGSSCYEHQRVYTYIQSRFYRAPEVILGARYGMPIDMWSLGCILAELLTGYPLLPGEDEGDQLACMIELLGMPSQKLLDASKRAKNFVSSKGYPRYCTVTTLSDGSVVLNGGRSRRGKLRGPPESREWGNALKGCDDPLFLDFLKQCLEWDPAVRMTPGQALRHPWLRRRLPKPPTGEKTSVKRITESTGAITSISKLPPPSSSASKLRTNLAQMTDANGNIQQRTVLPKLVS

DU-145 [18] = assay: Induction of cell cycle arrest in human DU-145 cells assessed as accumulation of cells at S phase at 2 uM incubated for 24 hrs by propidium iodide based flow cytometric analysis (Rvb= 29.02%); type: functional
DU-145 [19] = assay: Induction of cell cycle arrest in human DU-145 cells assessed as accumulation of cells at G1 phase at 4 uM incubated for 24 hrs by propidium iodide based flow cytometric analysis (Rvb= 53.46%); type: functional
CWR22R [20] = assay: Induction of cell cycle arrest in human 22Rv1 cells assessed as accumulation of cells at G1 phase at 2 uM incubated for 24 hrs by propidium iodide based flow cytometric analysis (Rvb= 55.28%); type: functional
[21] = Metabolic stability in human liver microsomes assessed as intrinsic clearance in presence of NADPH incubated up to 60 mins by LC-MS/MS analysis; type: ADME, Microsome; conditions: read-out: CLH
CWR22R [22] = assay: Induction of apoptosis in human 22Rv1 cells assessed as apoptotis rate at 8 uM incubated for 24 hrs by Annexin V-FITC and PI staining based flow cytometry (Rvb= 3.08%); type: functional
DU-145 [23] = assay: Induction of apoptosis in human DU-145 cells assessed as apoptotis rate at 4 uM incubated for 24 hrs by Annexin V-FITC and PI staining based flow cytometry (Rvb= 4.36%); type: functional
DU-145 [24] = assay: Induction of cell cycle arrest in human DU-145 cells assessed as accumulation of cells at G2 phase at 2 uM incubated for 24 hrs by propidium iodide based flow cytometric analysis (Rvb= 17.52%); type: functional
[25] = Metabolic stability in human liver microsomes assessed as half life in presence of NADPH incubated up to 60 mins by LC-MS/MS analysis; type: ADME, Microsome
CWR22R [26] = assay: Induction of apoptosis in human 22Rv1 cells assessed as increase in p53 level at 2 to 8 uM incubated for 24 hrs by Western blot analysis; type: functional, cell-based; conditions: dose 2-8 µM

Cl.O=C(c1ccc(Nc2ncc(F)c(-c3ccc4scnc4c3)n2)nc1)N1CCNCC1
Activity (DU-145 [1]): 54.77%
Activity (CWR22R [2]): 21.78%
Activity (DU-145 [3]): Active
Activity (CWR22R [4]): 22.88%
Activity (DU-145 [5]): Active
Activity (CWR22R [6]): Active
Activity (DU-145 [7]): 17.18%
Activity (DU-145 [8]): Active
Activity (DU-145 [9]): Active
Activity (DU-145 [10]): 12.12%
Activity [11]: Non-Toxic
Activity [12]: Non-Toxic
Activity (DU-145 [13]): Active
Activity [14]: Non-Toxic
Activity (DU-145 [15]): Active
Activity (DU-145 [16]): 19.37%
inhibition [17]: Active
Activity (DU-145 [18]): 26.15%
Activity (DU-145 [19]): 68.51%
Activity (CWR22R [20]): 62.88%
CLint scaled [21]: 16 mL/min/kg
Activity (CWR22R [22]): 24.04%
Activity (DU-145 [23]): 7.86%
Activity (DU-145 [24]): 12.78%
half-life [25]: 1.3 h
Activity (CWR22R [26]): Active
